Data published in patent publication US20110217324A1, “INHIBITORS OF ANTIGEN PRESENTATION BY MHC CLASS II MOLECULES AND METHODS OF USE THEREOF” (priority 2007, published 2011).
Square brackets hold non-standard residues; d marks the D form. Peptide text beside a SMILES is read from it. Trp(1-Me) = Cn1cc(C[C@H](N)C(=O)O)c2ccccc21; Bta = N[C@@H](Cc1csc2ccccc12)C(=O)O; Tic = O=C(O)[C@@H]1Cc2ccccc2CN1; Cit = NC(=O)NCCC[C@H](N)C(=O)O; Chg = N[C@H](C(=O)O)C1CCCCC1; Pip = O=C(O)[C@@H]1CCCCN1; Abu = CC[C@H](N)C(=O)O; βAla = NCCC(=O)O; Sar = CNCC(=O)O

What follows are molecules tested against T1, MHC DR2 (DRB1*1501/DRA*0101) (Homo sapiens, UniProt P01903+P01911) (assay: HLA II Binding Assay (competition with biotinylated reference peptide)). Settings: purified HLA-DR, biotinylated reference compound for DRB1*1501, 37° C. 24 h to 72 h; read-out: Inhibition of peptide binding IC50 (against MHC DR2 (DRB1*1501/DRA*0101)).
T1 construct: endogenous in cells; host or cells: EBV homozygous (B lymphoblastoid) cell lines
Protocol: EBV homozygous cell lines are used as sources of human HLA class II molecules. […] The supernatant from lysed cells after centrifugation (100,000 g for 1 h) is applied to Sepharose 4B and protein A-Sepharose 4B columns and then to the specific antibody column. […] Fractions are immediately neutralized to pH 7 with 2 mM Tris-HCl (pH 6.8) and extensively dialyzed against 1 mM n-dodecyl β-D-maltoside, 150 mM NaCl, 10 mM phosphate (pH 7) buffer.
Samples (100 μl per well) are incubated in 96-wells polypropylene plates at 37° C. for 24 h to 72 h. After neutralization with 50 μl of 450 mM Tris HCl pH 7.5, 0.003% thimerosal, 0.3% BSA, 1 mM n-dodecyl β-D-maltoside buffer, samples are applied to 96-well maxisorp ELISA plates previously coated with 10 μg/ml L243 Mab and saturated with 100 mM Tris HCl pH=7.5, 0.3% BSA, and 0.003% thimerosal buffer. Samples are allowed to bind to the antibody-coated plates for 2 h at room temperature. Bound biotinylated compound is detected by incubating streptavidin-alkaline phosphatase conjugate, and after washings, by the addition of 4-methylumbelliferyl phosphate substrate. […] Maximal binding is determined by incubating the biotinylated peptide with the MHC class II molecule in the absence of competitor. Binding specificity is assessed by adding an excess of non-biotinylated peptide.
Molecule `CC[C@H](N)C(=O)N[C@H](C(=O)N[C@H](C(=O)N[C@@H](CCCNC(N)=O)C(=O)N1Cc2ccccc2C[C@H]1C(=O)N[C@@H](Cc1ccccc1)C(N)=O)C1CCCCC1)C(C)C` [(NH2-Abu)V(Chg)(Cit)(Tic)F] (H-[Abu]V[Chg][Cit][Tic]F-NH2) has an IC50 of 1 to 10 nM.
`CC[C@H](N)C(=O)N[C@H](C(=O)N[C@H](C(=O)N[C@@H](CCCNC(=N)N)C(=O)N1Cc2ccccc2C[C@H]1C(=O)N[C@@H](Cc1ccccc1)C(N)=O)C1CCCCC1)C(C)C` [(NH2-Abu)V(Chg)R(Tic)F] (H-[Abu]V[Chg]R[Tic]F-NH2) was tested, and the IC50 was 1 to 10 nM.
For `CC(C)[C@H](NC(=O)[C@@H](N)Cc1csc2ccccc12)C(=O)N[C@H](C(=O)N[C@@H](CCCNC(=N)N)C(=O)N1Cc2ccccc2C[C@H]1C(=O)N[C@@H](Cc1ccccc1)C(N)=O)C1CCCCC1` [(NH2-BTA)V(Chg)R(Tic)F] (H-[Bta]V[Chg]R[Tic]F-NH2), the IC50 was 10 to 100 nM.
`CC(C)[C@H](NC(=O)CCN)C(=O)N[C@H](C(=O)N[C@@H](CCCNC(N)=O)C(=O)N1Cc2ccccc2C[C@H]1C(=O)N[C@@H](Cc1ccccc1)C(N)=O)C1CCCCC1` [(NH2-Beta Ala)V(Chg)(Cit)(Tic)F] (H-[βAla]V[Chg][Cit][Tic]F-NH2) showed an IC50 of 1 to 10 nM.
Work on `CC(C)[C@H](NC(=O)CCN)C(=O)N[C@H](C(=O)N[C@@H](Cc1ccccc1)C(=O)N[C@@H](Cc1ccccc1)C(=O)N[C@@H](Cc1ccccc1)C(N)=O)C1CCCCC1` [(NH2-Beta Ala)V(Chg)FFF] (H-[βAla]V[Chg]FFF-NH2) yielded an IC50 of 100 to 1000 nM.
Molecule `CC(C)[C@H](NC(=O)CCN)C(=O)N[C@H](C(=O)N[C@@H](CCCNC(=N)N)C(=O)N1Cc2ccccc2C[C@H]1C(=O)N[C@@H](Cc1ccccc1)C(N)=O)C1CCCCC1` [(NH2-Beta Ala)V(Chg)R(Tic)F] (H-[βAla]V[Chg]R[Tic]F-NH2) has an IC50 of 1 to 10 nM.
`CC(C)[C@H](NC(=O)CN)C(=O)N[C@H](C(=O)N[C@@H](CCCNC(N)=O)C(=O)N1Cc2ccccc2C[C@H]1C(=O)N[C@@H](Cc1ccccc1)C(N)=O)C1CCCCC1` [(NH2-Gly)V(Chg)(Cit)(Tic)F] (H-GV[Chg][Cit][Tic]F-NH2) showed an IC50 of 1 to 10 nM.
With `CC(C)[C@H](NC(=O)CN)C(=O)N[C@H](C(=O)N[C@@H](CCCNC(=N)N)C(=O)N1Cc2ccccc2C[C@H]1C(=O)N[C@@H](Cc1ccccc1)C(N)=O)C1CCCCC1` [(NH2-Gly)V(Chg)R(Tic)F] (H-GV[Chg]R[Tic]F-NH2) the IC50 was 1 to 10 nM.
Work on `CNCC(=O)N[C@H](C(=O)N[C@H](C(=O)N[C@@H](CCCNC(N)=O)C(=O)N1Cc2ccccc2C[C@H]1C(=O)N[C@@H](Cc1ccccc1)C(N)=O)C1CCCCC1)C(C)C` [(NH2-Sar)V(Chg)(Cit)(Tic)F] (H-[Sar]V[Chg][Cit][Tic]F-NH2) yielded an IC50 of 1 to 10 nM.
In the case of `CNCC(=O)N[C@H](C(=O)N[C@H](C(=O)N[C@@H](CCCNC(=N)N)C(=O)N1Cc2ccccc2C[C@H]1C(=O)N[C@@H](Cc1ccccc1)C(N)=O)C1CCCCC1)C(C)C` [(NH2-Sar)V(Chg)R(Tic)F] (H-[Sar]V[Chg]R[Tic]F-NH2), the IC50 is reported as 1 to 10 nM.
For `CC(=O)N[C@H](C(=O)N[C@@H](CCCNC(=N)N)C(=O)N1Cc2ccccc2C[C@H]1C(=O)N[C@@H](Cc1cn(C)c2ccccc12)C(N)=O)C1CCCCC1` [Ac(Chg)R(Tic)(1-Me-Trp)] (Ac-[Chg]R[Tic][Trp(1-Me)]-NH2), the IC50 was 100 to 1000 nM.
Molecule `CC(=O)N[C@H](C(=O)N[C@@H](CCCNC(=N)N)C(=O)N1Cc2ccccc2C[C@H]1C(=O)N[C@@H](Cc1c[nH]c2ccccc12)C(N)=O)C1CCCCC1` [Ac(Chg)R(Tic)(Trp)] (Ac-[Chg]R[Tic]W-NH2) has an IC50 of 10 to 100 nM.
`CC(=O)N[C@H](C(=O)N[C@@H](CCCNC(=N)N)C(=O)N1Cc2ccccc2C[C@H]1C(=O)NC(Cc1cccc2[nH]ccc12)C(N)=O)C1CCCCC1` (some centres unmarked) [Ac(Chg)R(Tic)-(4′-Indolyl Ala)] was tested, and the IC50 was 10 to 100 nM.
With `CC(=O)N[C@H](C(=O)N[C@@H](CCCNC(=N)N)C(=O)N1CCCC[C@H]1C(=O)N[C@@H](Cc1ccccc1)C(=O)N1CCCC[C@H]1C(N)=O)C1CCCCC1` [Ac(Chg)R(homo Pro)F(homo Pro)] (Ac-[Chg]R[Pip]F[Pip]-NH2) the IC50 was 100 to 1000 nM.
